Laboratory results from patent publication US20100204467A1, “LANTHANIDE (III) ION COMPLEXING COMPOUNDS, LUMINESCENT LANTHANIDE (III) ION COMPLEXES AND USE THEREOF AS FLUORESCENT LABELS” (CIS BIO INTERNATIONAL, priority 2007, published 2010).

Legend:
[1] = Ligand reduction potential; format: physicochemical; details: vs n.h.e., 298K, 0.1 M NBu4ClO4, MeCN
Text: The quenching process with urate is believed to involve an intermediate exciplex, involving a short-lived bonding π-π interaction. This is disfavoured as the sensitising chromophore becomes less susceptible to accept electron density and is reflected in the ligand reduction potential. For compound (7), this was −1.52 V (vs n.h.e., 298K, 0.1 M NBu4ClO4, MeCN), which compares to −1.07 V for the cyclohexyl tetraazatriphenylene and −1.60 V for the 1-aza-xanthone (2). Terbium complexes of L^1 and L^2 resisted urate and ascorbate quenching more effectively than the comparator complexes.

human serum albumin = human serum albumin (Homo sapiens, UniProt P02768); test: Emission lifetime in the presence of human serum albumin, urate and ascorbate; details: 0.4 mM human serum albumin, 0.1 mM sodium urate, 0.2 mM ascorbate, pH 7.4, 298K, 0.1M HEPES
Procedure: In the presence of 0.4 mM human serum albumin, 0.1 mM sodium urate and 0.2 mM ascorbate, (pH 7.4, 298K, 0.1M HEPES), the emission lifetime of [TbL^2]^3+ was within 10% of its value in water, i.e. 2.1 ms, compared to 0.7 ms and 0.5 ms for [TbL^6]^3+ and [TbL^4]^3+ respectively under the same conditions.

Emission quantum yield = format: physicochemical; details: quantum yields ±15%
Text: (§1) Absorption, emission and triplet energy data for these complexes are collated in Table 1.

[2] = Absorption spectrum of Tb(III) complexes; format: physicochemical; details: for γmax: absorption, Tb(III) complexes; for ε: molar extinction coefficient
Text: as §1
The absorption spectrum of [TbL^1]

[3] = Stern-Volmer excited state quenching by ascorbate; format: physicochemical; details: pH 7.4, 0.1 M HEPES, 298K
Text: (§2) A key issue in assessing the utility of such luminescent complexes for intracellular application is their sensitivity towards quenching by endogenous electron-rich species (e.g. urate/ascorbate) either when the complexes are free or protein bound. Accordingly, the Stern-Volmer quenching constants (KSv^−1/mM) defining their relative sensitivity to quenching can be assessed comparatively, (Table 2).

[4] = Stern-Volmer excited state quenching by iodide; format: physicochemical; details: pH 7.4, 0.1 M HEPES, 298K
Text: as §2

[5] = Terbium emission lifetime / decay rate constants in H2O and D2O; format: physicochemical; details: lifetime ±10%
Text: as §1

[6] = tested on: Chinese hamster ovarian cells; details: observed previously under the same standard conditions; cited from earlier work
[7] = Stern-Volmer excited state quenching by urate; format: physicochemical; details: pH 7.4, 0.1 M HEPES, 298K
Text: as §2

[8] = Triplet energy measured on Gd analogues in frozen glass (77K); format: physicochemical; details: Gd analogues in frozen glass of Et2O/isopentane/ethanol or EtOH/MeOH (2:1)
[9] = first of two columns headed kD2O^Tb
[10] = second of two columns headed kD2O^Tb

Sequence of human serum albumin (P02768 25-609): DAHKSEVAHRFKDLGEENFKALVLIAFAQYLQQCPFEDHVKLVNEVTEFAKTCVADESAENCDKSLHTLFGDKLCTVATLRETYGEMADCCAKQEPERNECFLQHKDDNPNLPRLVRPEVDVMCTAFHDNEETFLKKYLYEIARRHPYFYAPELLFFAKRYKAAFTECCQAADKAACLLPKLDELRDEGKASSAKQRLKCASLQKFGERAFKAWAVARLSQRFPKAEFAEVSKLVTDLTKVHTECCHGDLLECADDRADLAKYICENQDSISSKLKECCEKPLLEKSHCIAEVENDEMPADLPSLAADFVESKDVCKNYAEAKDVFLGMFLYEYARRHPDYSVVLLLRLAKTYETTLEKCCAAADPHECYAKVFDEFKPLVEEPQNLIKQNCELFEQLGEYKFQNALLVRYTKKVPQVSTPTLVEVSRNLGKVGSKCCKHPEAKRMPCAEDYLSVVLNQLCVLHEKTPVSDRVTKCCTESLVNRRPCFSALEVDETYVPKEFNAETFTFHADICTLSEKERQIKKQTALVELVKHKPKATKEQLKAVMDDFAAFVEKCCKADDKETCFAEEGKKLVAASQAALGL

Row | Compound | ligand reduction potential [1] | emission lifetime (human serum albumin) | nem^Tb (H2O) (Emission quantum yield) | γmax [2] | ε [2] | Ksv^−1 ascorbate [3] | Ksv^−1 (I^−) [4] | kD2O^Tb [5, 9] | kD2O^Tb [5, 10] | nuclear localisation [6] | Ksv^−1 (urate) [7] | ET^Gd [8]
1 | CC(C)(C)c1ccc2oc3cccnc3c(=O)c2c1 [Compound 2, 7-Tert-Butyl-1-Azaxanthone] | −1.60 V |  |  |  |  |  |  |  |  |  |  | 
2 | Cc1ccn(-c2ccc3c(=O)c4cc(C(C)(C)C)ccc4oc3n2)n1 [Compound 7, 7-Tert-Butyl-2-(N-3′-Methylpyrazole)-1-Azaxanthone] | −1.52 V |  |  |  |  |  |  |  |  |  |  | 
3 | CC(NC(=O)CN1CCN(CC(=O)NC(C)c2ccccc2)CCN(Cc2ccc3c(=O)c4cc(C(C)(C)C)ccc4oc3n2)CCN(CC(=O)NC(C)c2ccccc2)CC1)c1ccccc1.[Tb+3] (stereo not shown) [[TbL^4]^3+] |  | 0.5 ms | 37% | 335 nm | 6,900 M^−1 cm^−1 | 0.37 mM | 9.2 mM | 0.61 (ms)^−1 | 0.35 (ms)^−1 | tendency for nuclear localisation | 0.04 mM | 24,800 cm^−1
4 | CC(NC(=O)CN1CCN(CC(=O)NC(C)c2ccccc2)CCN(Cc2ccc3c(n2)c2ncccc2c2nc4c(nc32)CCCC4)CCN(CC(=O)NC(C)c2ccccc2)CC1)c1ccccc1.[Tb+3] (stereo not shown) [[TbL^6]^3+] |  | 0.7 ms | 40% | 348 nm | 8,300 M^−1 cm^−1 |  |  | 0.64 (ms)^−1 | 0.58 (ms)^−1 | tendency for nuclear localisation |  | 23,800 cm^−1
5 | cyclohexyl tetraazatriphenylene [reference compound] | −1.07 V |  |  |  |  |  |  |  |  |  |  | 
